Measured values published in ChEMBL document CHEMBL3400005, “Thermodynamic equilibrium solubility measurements in simulated fluids by 96-well plate method in early drug discovery” (Bioorg Med Chem Lett, 2015).
Converted amounts (≈) assume the structure as drawn.

What was measured:
[1] = buffer, pH 7.4, 4 h
[2] = physchem; conditions: water
[3] = physchem; conditions: simulated gastric fluid, pH 1.2
[4] = physchem; conditions: simulated intestinal fluid, pH 6.8
[5] = physchem; conditions: water; remark: listed apart in the source
[6] = physchem; conditions: PBS, pH 7.4
[7] = physchem; conditions: simulated gastric fluid, pH 1.2; remark: listed apart in the source
[8] = physchem; conditions: simulated intestinal fluid, pH 6.8; remark: listed apart in the source
[9] = physchem
[10] = buffer, 4 h
[11] = simulated gi fluid, pH 1.2, 4 h
[12] = simulated gi fluid, pH 6.8, 4 h
[13] = buffer, 24 h
[14] = buffer, pH 7.4, 24 h
[15] = simulated gi fluid, pH 1.2, 24 h
[16] = simulated gi fluid, pH 6.8, 24 h
[17] = physchem; conditions: PBS, pH 7.4; remark: listed apart in the source

-log(solubility) [1]	solubility thermodynamic at 4 h [2] [µM]	solubility thermodynamic at 4 h [3] [µM]	solubility thermodynamic at 4 h [4] [µM]	solubility thermodynamic at 24 h [5] [µM]	solubility thermodynamic at 24 h [6] [µM]	solubility thermodynamic at 24 h [7] [µM]	solubility thermodynamic at 24 h [8] [µM]	solubility thermodynamic [9] [µM]	-log(solubility) [10]	-log(solubility) [11]	-log(solubility) [12]	-log(solubility) [13]	-log(solubility) [14]	-log(solubility) [15]	-log(solubility) [16]	-log(solubility)	solubility [µg/mL]	solubility thermodynamic at 4 h [17] [µM]	SMILES
6.62	4.79 (≈ 2 µg/mL)	9.55 (≈ 4 µg/mL)	9.55 (≈ 4 µg/mL)	4.07 (≈ 1.7 µg/mL)	0.398 (≈ 0.167 µg/mL)	10.7 (≈ 4.48 µg/mL)	10 (≈ 4.18 µg/mL)	5.75 (≈ 2.41 µg/mL)	–	–	–	–	–	–	–	–	–	–	COCCOC(=O)C1=C(C)NC(C)=C(C(=O)OC(C)C)C1c1cccc([N+](=O)[O-])c1 (stereo not drawn) [NIMODIPINE]
4.01	–	97.7 (≈ 80.4 µg/mL)	97.7 (≈ 80.4 µg/mL)	–	–	95.5 (≈ 78.6 µg/mL)	72.4 (≈ 59.6 µg/mL)	–	4.31	–	–	4.21	4.14	–	–	–	–	–	CO[C@H]1/C=C/O[C@@]2(C)Oc3c(C)c(O)c4c(O)c(c(/C=N/N5CCN(C)CC5)c(O)c4c3C2=O)NC(=O)/C(C)=C\C=C\[C@H](C)[C@H](O)[C@@H](C)[C@@H](O)[C@@H](C)[C@H](OC(C)=O)[C@@H]1C [RIFAMPIN]
5.67	–	1.07 (≈ 0.504 µg/mL)	1.07 (≈ 0.504 µg/mL)	–	–	–	–	–	5.97	–	–	–	–	–	–	–	–	–	CC1(C)[C@@H](O)CC[C@]2(C)[C@H]3C(=O)C=C4[C@@H]5C[C@@](C)(C(=O)O)CC[C@]5(C)CC[C@@]4(C)[C@]3(C)CC[C@@H]12 [ENOXOLONE]

Continued, compound first:

SMILES	-log(solubility) [1]	solubility thermodynamic at 4 h [2] [µM]	solubility thermodynamic at 4 h [3] [µM]	solubility thermodynamic at 4 h [4] [µM]	solubility thermodynamic at 24 h [5] [µM]	solubility thermodynamic at 24 h [6] [µM]	solubility thermodynamic at 24 h [7] [µM]	solubility thermodynamic at 24 h [8] [µM]	solubility thermodynamic [9] [µM]	-log(solubility) [10]	-log(solubility) [11]	-log(solubility) [12]	-log(solubility) [13]	-log(solubility) [14]	-log(solubility) [15]	-log(solubility) [16]	-log(solubility)	solubility [µg/mL]	solubility thermodynamic at 4 h [17] [µM]
NC(=O)N1c2ccccc2C=Cc2ccccc21 [CARBAMAZEPINE]	4.47	–	–	–	–	–	–	–	–	4.07	4.07	4.28	4.4	4.48	4.34	4.85	4.29	170 (≈ 720 µM)	–
COc1cc2c(c(OC)c1OC)-c1ccc(OC)c(=O)cc1[C@@H](NC(C)=O)CC2 [COLCHICINE]	3.7	–	50.1 (≈ 20 µg/mL)	200 (≈ 79.7 µg/mL)	–	–	–	–	–	3.43	–	–	–	–	–	–	–	–	–
COc1cc(/C=C/C(=O)CC(=O)/C=C/c2ccc(O)c(OC)c2)ccc1O [CURCUMIN]	–	1.35 (≈ 0.497 µg/mL)	1.35 (≈ 0.497 µg/mL)	1.35 (≈ 0.497 µg/mL)	–	–	–	–	–	–	–	–	–	–	–	–	6.78	–	1.35 (≈ 0.497 µg/mL)
CCCC1O[C@@H]2C[C@H]3[C@@H]4CCC5=CC(=O)C=C[C@]5(C)[C@H]4[C@@H](O)C[C@]3(C)[C@]2(C(=O)CO)O1 (stereo partly drawn) [BUDESONIDE]	5.03	–	–	–	–	–	–	–	–	5.03	5.03	5.03	5.23	5.27	5.07	5.24	5.33	28 (≈ 65 µM)	–
CC(=O)Nc1ccc(O)cc1 [ACETAMINOPHEN]	3	–	1000 (≈ 151 µg/mL)	3.31 (≈ 0.501 µg/mL)	–	–	1230 (≈ 186 µg/mL)	3.31 (≈ 0.501 µg/mL)	–	2.7	–	–	2.87	2.93	–	–	–	–	–
